The source of these data is PubChem BioAssay AID256 (DTP/NCI, 2004).

This test deals with CD2F1 mice, L1210 leukemia ip, survival T/C. Put plainly: NCI In Vivo Anticancer Drug Screen. Data for tumor model L1210 Leukemia (intraperitoneal) in CD2F1 (CDF1) mice. The following applies: higher = longer survival. Summed up:
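Mice carrying a transplanted tumor received test compound or vehicle alone. The value is the measurement in the treated group divided by that in the vehicle-treated control group.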

[1] abbreviates: endpoint: mean survival time, dose: 12.5 mg/kg/injection, schedule: Q01DX009 (ip), vehicle: saline.
The mark [2] stands for this setting: endpoint: mean survival time, dose: 25.0 mg/kg/injection, schedule: Q01DX009 (ip), vehicle: saline.
Setting [3] is: endpoint: mean survival time, dose: 50.0 mg/kg/injection, schedule: Q01DX009 (ip), vehicle: saline.
[4] abbreviates: endpoint: mean survival time, dose: 100.0 mg/kg/injection, schedule: Q01DX009 (ip), vehicle: saline.
The mark [5] stands for this setting: endpoint: mean survival time, dose: 100.0 mg/kg/injection, schedule: Q01DX009 (ip), vehicle: saline with Tween-80.
Where [6] appears, read: endpoint: mean survival time, dose: 200.0 mg/kg/injection, schedule: Q01DX009 (ip), vehicle: saline with Tween-80.
[7] abbreviates: endpoint: mean survival time, dose: 400.0 mg/kg/injection, schedule: Q01DX009 (ip), vehicle: saline with Tween-80.
[8] abbreviates: endpoint: mean survival time, dose: 50.0 mg/kg/injection, schedule: Q01DX009 (ip), vehicle: saline with Tween-80.

The structures appear in SMILES notation. “And” between values parts separate entries of the source, which are not always exact repeats. Identical values can stand only once. Toxic doses and inconclusive results are not listed.

Take `O=S(=O)(O)c1ccc(-c2ccc(S(=O)(=O)O)cc2)cc1` (tested in a mixture with another compound): the T/C by setting is: (endpoint: mean survival time, dose: 6.3 mg/kg/injection, schedule: Q01DX009 (ip), vehicle: saline) 95 % of control; (endpoint: mean survival time, dose: 6.3 mg/kg/injection, schedule: Q04DX003 (ip), vehicle: saline) 121 % of control and 108 % of control; (endpoint: mean survival time, dose: 12.0 mg/kg/injection, schedule: Q01DX001 (ip), vehicle: saline) 118 % of control; (endpoint: mean survival time, dose: 12.5 mg/kg/injection, schedule: Q01DX001 (ip), vehicle: saline) 117 % of control and 123 % of control; under setting [1], 150 % of control; (endpoint: mean survival time, dose: 12.5 mg/kg/injection, schedule: Q04DX003 (ip), vehicle: saline) 122 % of control. The T/C by setting is: under setting [2], 162 % of control and 172 % of control and 180 % of control; (endpoint: mean survival time, dose: 50.0 mg/kg/injection, schedule: Q01DX001 (ip), vehicle: saline) 150 % of control; under setting [3], 115 % of control and 205 % of control and 342 % of control; (endpoint: mean survival time, dose: 50.0 mg/kg/injection, schedule: Q04DX003 (ip), vehicle: saline) 160 % of control and 190 % of control and 205 % of control; (endpoint: mean survival time, dose: 75.0 mg/kg/injection, schedule: Q04DX003 (ip), vehicle: saline) 195 % of control; under setting [4], 100 % of control and 102 % of control. The T/C is 248 % of control and 275 % of control and 489 % of control (endpoint: mean survival time, dose: 100.0 mg/kg/injection, schedule: Q04DX003 (ip), vehicle: saline); 217 % of control (endpoint: mean survival time, dose: 150.0 mg/kg/injection, schedule: Q04DX003 (ip), vehicle: saline); 120 % of control (endpoint: mean survival time, dose: 200.0 mg/kg/injection, schedule: Q04DX003 (ip), vehicle: saline).

For `CN(C)CCCNC(=S)S`, the T/C (endpoint: mean survival time, dose: 6.0 mg/kg/injection, schedule: Q04DX003 (ip), vehicle: saline) was 95 % of control; the T/C (endpoint: mean survival time, dose: 12.0 mg/kg/injection, schedule: Q04DX003 (ip), vehicle: saline) is 93 % of control; the T/C (endpoint: mean survival time, dose: 25.0 mg/kg/injection, schedule: Q04DX003 (ip), vehicle: saline) was 106 % of control.

On to `CN(C)c1ccn(C2OC(CO)C(O)C2O)c(=O)n1` (stereo not given), for which the T/C is 107 % of control (endpoint: mean survival time, dose: 100.0 mg/kg/injection, schedule: Q01DX005 (ip), vehicle: water); 103 % of control (endpoint: mean survival time, dose: 200.0 mg/kg/injection, schedule: Q01DX005 (ip), vehicle: water); 115 % of control (endpoint: mean survival time, dose: 400.0 mg/kg/injection, schedule: Q01DX005 (ip), vehicle: water).

On to `CCOC(=O)c1ccnc2ccc(O)cc12`, for which the T/C under setting [5] is 104 % of control, the T/C under setting [6] was 93 % of control and the T/C under setting [7] was 95 % of control.

Take `OCC1OC(c2ccccc2)OC(CO)C(O)C1O` (stereo not given): the T/C runs as follows: under setting [8], 96 % of control; under setting [5], 98 % of control; under setting [6], 94 % of control.

For the molecule `COC(=O)CC(=O)NC(C)CC1CNc2ccccc21` (stereo not given), the T/C by setting is: (endpoint: mean survival time, dose: 100.0 mg/kg/injection, schedule: Q04DX003 (ip), vehicle: saline with Tween-80) 103 % of control; (endpoint: mean survival time, dose: 200.0 mg/kg/injection, schedule: Q04DX003 (ip), vehicle: saline with Tween-80) 103 % of control; (endpoint: mean survival time, dose: 400.0 mg/kg/injection, schedule: Q04DX003 (ip), vehicle: saline with Tween-80) 97 % of control.

As for `CCCCCCCCC1C(CCCCCCCC(=O)N2CCCC2)C2(Cl)C(Cl)=C(Cl)C1(Cl)C2(Cl)Cl` (stereo not given), the T/C is, setting by setting: (endpoint: mean survival time, dose: 75.0 mg/kg/injection, schedule: Q01DX001 (ip), vehicle: saline) 98 % of control; (endpoint: mean survival time, dose: 150.0 mg/kg/injection, schedule: Q01DX001 (ip), vehicle: saline) 104 % of control; (endpoint: mean survival time, dose: 300.0 mg/kg/injection, schedule: Q01DX001 (ip), vehicle: saline) 96 % of control.

As to `CN(C)CCC(=O)c1ccccc1`, the T/C reads like this: under setting [2], 106 % of control; under setting [3], 95 % of control; under setting [4], 106 % of control.

On to `O=C(O)CCC(=O)c1cccc(O)c1`, for which the T/C by setting is: (endpoint: mean survival time, dose: 100.0 mg/kg/injection, schedule: Q01DX001 (ip), vehicle: saline) 103 % of control; (endpoint: mean survival time, dose: 200.0 mg/kg/injection, schedule: Q01DX001 (ip), vehicle: saline) 104 % of control; (endpoint: mean survival time, dose: 400.0 mg/kg/injection, schedule: Q01DX001 (ip), vehicle: saline) 103 % of control.

On to `CCOC(=O)CNC(=O)Sc1ccc(C(C)(C)C)cc1`, for which the T/C is, setting by setting: (endpoint: mean survival time, dose: 12.5 mg/kg/injection, schedule: Q01DX009 (ip), vehicle: Klucel (hydroxypropylcellulose) (HPC)) 96 % of control and 105 % of control; (endpoint: mean survival time, dose: 25.0 mg/kg/injection, schedule: Q01DX009 (ip), vehicle: Klucel (hydroxypropylcellulose) (HPC)) 101 % of control and 105 % of control; (endpoint: mean survival time, dose: 50.0 mg/kg/injection, schedule: Q01DX009 (ip), vehicle: Klucel (hydroxypropylcellulose) (HPC)) 101 % of control and 102 % of control; (endpoint: mean survival time, dose: 100.0 mg/kg/injection, schedule: Q01DX009 (ip), vehicle: Klucel (hydroxypropylcellulose) (HPC)) 100 % of control and 105 % of control; (endpoint: mean survival time, dose: 200.0 mg/kg/injection, schedule: Q01DX009 (ip), vehicle: Klucel (hydroxypropylcellulose) (HPC)) 100 % of control and 103 % of control; (endpoint: mean survival time, dose: 400.0 mg/kg/injection, schedule: Q01DX009 (ip), vehicle: Klucel (hydroxypropylcellulose) (HPC)) 97 % of control.

Regarding `Oc1ccccc1C=NCCC[N-]CCCN=Cc1ccccc1O.[Co]`, the T/C is 102 % of control and 103 % of control (endpoint: mean survival time, dose: 6.25 mg/kg/injection, schedule: Q01DX009 (ip), vehicle: saline); 100 % of control and 103 % of control under setting [1]; 110 % of control and 111 % of control under setting [2]; 113 % of control and 100 % of control under setting [3]; 104 % of control under setting [4].

For the molecule `OC(CC(CC(O)(C(F)(F)F)C(F)(F)F)=NNc1ccccc1)(C(F)(F)F)C(F)(F)F`, the T/C is 92 % of control (endpoint: mean survival time, dose: 25.0 mg/kg/injection, schedule: Q01DX009 (ip), vehicle: saline with Tween-80) and 93 % of control under setting [8].

On to `O=C(O)c1cn(C2OC(CO)C(O)C2O)c2nc[nH]c(=O)c12` (stereo not given), for which the T/C by setting is: (endpoint: median survival time, dose: 8.63 mg/kg/injection, schedule: Q01DX005 (ip), vehicle: saline with Tween-80) 103 % of control; (endpoint: median survival time, dose: 17.25 mg/kg/injection, schedule: Q01DX005 (ip), vehicle: saline with Tween-80) 101 % of control; (endpoint: median survival time, dose: 34.5 mg/kg/injection, schedule: Q01DX005 (ip), vehicle: saline with Tween-80) 108 % of control; (endpoint: median survival time, dose: 69.0 mg/kg/injection, schedule: Q01DX005 (ip), vehicle: saline with Tween-80) 104 % of control; (endpoint: median survival time, dose: 138.0 mg/kg/injection, schedule: Q01DX005 (ip), vehicle: saline with Tween-80) 110 % of control.

`CCCCn1c(C)nc2c([N+](=O)[O-])cc(C(F)(F)F)cc21`: the T/C reads like this: (endpoint: mean survival time, dose: 50.0 mg/kg/injection, schedule: Q01DX001 (ip), vehicle: saline with Tween-80) 95 % of control; (endpoint: mean survival time, dose: 100.0 mg/kg/injection, schedule: Q01DX001 (ip), vehicle: saline with Tween-80) 98 % of control; (endpoint: mean survival time, dose: 200.0 mg/kg/injection, schedule: Q01DX001 (ip), vehicle: saline with Tween-80) 95 % of control.

Consider `CC(=O)Nc1onc(C)c1NC(C)=O`, for which the T/C is, setting by setting: under setting [5], 95 % of control; under setting [6], 101 % of control; under setting [7], 95 % of control.

As to `CC(=O)OCC1OC(n2nc(C#N)c(C#N)n2)C(OC(C)=O)C1OC(C)=O` (stereo not given), the T/C (endpoint: mean survival time, dose: 12.5 mg/kg/injection, schedule: Q01DX005 (ip), vehicle: distilled water + Tween-80) was 106 % of control; the T/C (endpoint: mean survival time, dose: 25.0 mg/kg/injection, schedule: Q01DX005 (ip), vehicle: distilled water + Tween-80) was 101 % of control and 106 % of control; the T/C (endpoint: mean survival time, dose: 50.0 mg/kg/injection, schedule: Q01DX005 (ip), vehicle: distilled water + Tween-80) was 98 % of control and 112 % of control; the T/C (endpoint: mean survival time, dose: 100.0 mg/kg/injection, schedule: Q01DX005 (ip), vehicle: distilled water + Tween-80) is 115 % of control and 104 % of control; the T/C (endpoint: mean survival time, dose: 200.0 mg/kg/injection, schedule: Q01DX005 (ip), vehicle: distilled water + Tween-80) was 121 % of control and 104 % of control; the T/C (endpoint: mean survival time, dose: 400.0 mg/kg/injection, schedule: Q01DX005 (ip), vehicle: distilled water + Tween-80) was 106 % of control.

Regarding `O=C1CSC(=S)N1/N=C/c1ccc2c(c1)OCO2`, the T/C was 94 % of control (endpoint: mean survival time, dose: 75.0 mg/kg/injection, schedule: Q01DX001 (ip), vehicle: other); 93 % of control (endpoint: mean survival time, dose: 150.0 mg/kg/injection, schedule: Q01DX001 (ip), vehicle: other); 97 % of control (endpoint: mean survival time, dose: 300.0 mg/kg/injection, schedule: Q01DX001 (ip), vehicle: other).

As for `Cc1nccc2c1[nH]c1cc(N)ccc12.[Cl][Sn][Cl]`, the T/C by setting is: (endpoint: mean survival time, dose: 5.0 mg/kg/injection, schedule: Q01DX009 (ip), vehicle: saline with Tween-80) 115 % of control; (endpoint: mean survival time, dose: 10.0 mg/kg/injection, schedule: Q01DX009 (ip), vehicle: saline with Tween-80) 103 % of control; (endpoint: mean survival time, dose: 20.0 mg/kg/injection, schedule: Q01DX009 (ip), vehicle: saline with Tween-80) 102 % of control.
